Numbers after ± are expanded uncertainties.
Tests used:
[1] = 298.15 K; 101.33 kPa; Liquid; Vibrating tube method
[2] = refractive index (Na D-line) (dimensionless); settings: 298.15 K; 101.33 kPa; Liquid; Standard Abbe refractometry

Structure (SMILES)	mass density [1]	refractive index [2]
CCCCCCCCn1cc[n+](C)c1.O=S(=O)([N-]S(=O)(=O)C(F)(F)F)C(F)(F)F	1320.76 ± 12 kg/m3	1.43331 ± 0.0012
CCCCCCCC[n+]1ccn(C)c1.F[B-](F)(F)F [1-methyl-3-octylimidazolium tetrafluoroborate]	1104.42 ± 8.5 kg/m3	1.43329 ± 0.0012
CC1CCCCC1 [methylcyclohexane]	764.97 ± 0.31 kg/m3	1.42048 ± 0.00075
c1ccsc1 [thiophene]	1058.5 ± 0.15 kg/m3	1.52581 ± 0.00073
